The numbers were not newly measured in patent US20110152294A1, “USE OF OSMOLYTES OBTAINED FROM EXTREMOPHILIC BACTERIA FOR THE PRODUCTION OF INHALABLE MEDICAMENTS FOR THE PROPHYLAXIS AND TREATMENT OF PULMONARY AND CARDIOVASCULAR DISEASES AND AN INHALATION DEVICE COMPRISING OSMOLYTE AS ACTIVE AGENT COMPONENT” (priority 2003, published 2011), which cites them from elsewhere.

For this data set, the system named is cornea and iris of the eyes of rabbits. As to conditions: external application on cornea and iris of rabbit eyes; effects disappeared afterwards.

The structures appear in SMILES notation.

For `CC1=NC[C@H](O)[C@@H](C(=O)O)N1` [hydroxyectoine], the “eye irritation after external application” value was “initial irritation and sensitization of the conjunctiva”.
